Assay results taken from the NIST ThermoML archive (doi:10.1016/j.fluid.2005.07.017).

Conditions: Liquid, Vibrating tube method

c1ccsc1 [thiophene]
Conditions	mass density [kg/m3]
293.15 K, 101 kPa	1063.59
303.15 K, 101 kPa	1051.55
313.09 K, 1029 kPa	1040.96
313.09 K, 1969 kPa	1041.84
313.09 K, 2970 kPa	1042.78
313.09 K, 3987 kPa	1043.71
313.09 K, 5055 kPa	1044.72
313.09 K, 5952 kPa	1045.51
313.09 K, 6937 kPa	1046.43
313.09 K, 8032 kPa	1047.39
313.09 K, 9218 kPa	1048.44
313.09 K, 10045 kPa	1049.18
313.09 K, 11012 kPa	1050.03
313.09 K, 12014 kPa	1050.9
313.09 K, 12995 kPa	1051.74
313.09 K, 13961 kPa	1052.59
313.09 K, 14970 kPa	1053.43
313.09 K, 15953 kPa	1054.26
313.09 K, 17004 kPa	1055.16
313.09 K, 18003 kPa	1055.95
313.09 K, 18904 kPa	1056.76
313.15 K, 101 kPa	1039.32
323.01 K, 1047 kPa	1028.97
323.01 K, 2059 kPa	1029.98
323.01 K, 3070 kPa	1031.02
323.01 K, 4047 kPa	1031.99
323.01 K, 5002 kPa	1032.9
323.01 K, 6005 kPa	1033.9
323.01 K, 7068 kPa	1034.92
323.01 K, 8021 kPa	1035.81
323.01 K, 9013 kPa	1036.76
323.01 K, 10005 kPa	1037.67
323.01 K, 10991 kPa	1038.62
323.01 K, 12034 kPa	1039.58
323.01 K, 12977 kPa	1040.44
323.01 K, 13999 kPa	1041.38
323.01 K, 14991 kPa	1042.26
323.01 K, 15995 kPa	1043.17
323.01 K, 16998 kPa	1044.03
323.01 K, 17983 kPa	1044.93
323.01 K, 18951 kPa	1045.78
323.15 K, 101 kPa	1026.98
332.85 K, 1015 kPa	1016.93
332.85 K, 2035 kPa	1018
332.85 K, 3004 kPa	1019.06
332.85 K, 3964 kPa	1020.05
332.85 K, 4991 kPa	1021.14
332.85 K, 6001 kPa	1022.17
332.85 K, 7014 kPa	1023.21
332.85 K, 7998 kPa	1024.2
332.85 K, 9009 kPa	1025.23
332.85 K, 9995 kPa	1026.19
332.85 K, 10989 kPa	1027.18
332.85 K, 12006 kPa	1028.17
332.85 K, 13009 kPa	1029.18
332.85 K, 13971 kPa	1030.09
332.85 K, 15006 kPa	1031.04
332.85 K, 15990 kPa	1032.01
332.85 K, 17050 kPa	1033.03
332.85 K, 17976 kPa	1033.88
332.85 K, 19018 kPa	1034.92
333.15 K, 101 kPa	1014.58
342.77 K, 1039 kPa	1004.75
342.77 K, 2072 kPa	1005.93
342.77 K, 3033 kPa	1007.02
342.77 K, 4023 kPa	1008.17
342.77 K, 5027 kPa	1009.26
342.77 K, 6033 kPa	1010.36
342.77 K, 7008 kPa	1011.44
342.77 K, 7998 kPa	1012.5
342.77 K, 9005 kPa	1013.59
342.77 K, 10000 kPa	1014.65
342.77 K, 10963 kPa	1015.65
342.77 K, 12009 kPa	1016.72
342.77 K, 13023 kPa	1017.82
342.77 K, 13928 kPa	1018.74
342.77 K, 15009 kPa	1019.83
342.77 K, 15998 kPa	1020.79
342.77 K, 17025 kPa	1021.8
342.77 K, 17995 kPa	1022.8
342.77 K, 19013 kPa	1023.79
342.77 K, 20001 kPa	1024.73
343.15 K, 101 kPa	1002.15
352.67 K, 1064 kPa	992.39
352.67 K, 2003 kPa	993.54
352.67 K, 3024 kPa	994.79
352.67 K, 4003 kPa	995.98
352.67 K, 5048 kPa	997.22
352.67 K, 6013 kPa	998.36
352.67 K, 7013 kPa	999.51
352.67 K, 8050 kPa	1000.73
352.67 K, 9018 kPa	1001.82
352.67 K, 10003 kPa	1002.93
352.67 K, 11003 kPa	1004.07
352.67 K, 12004 kPa	1005.16
352.67 K, 12998 kPa	1006.25
352.67 K, 14005 kPa	1007.34
352.67 K, 15038 kPa	1008.46
352.67 K, 16006 kPa	1009.49
352.67 K, 17027 kPa	1010.58
352.67 K, 18001 kPa	1011.6
352.67 K, 19031 kPa	1012.65
352.67 K, 20017 kPa	1013.74
353.15 K, 101 kPa	989.76
362.51 K, 1007 kPa	979.8
362.51 K, 2022 kPa	981.13
362.51 K, 3029 kPa	982.49
362.51 K, 4004 kPa	983.74
362.51 K, 5006 kPa	985.01
362.51 K, 6003 kPa	986.27
362.51 K, 6999 kPa	987.5
362.51 K, 7993 kPa	988.73
362.51 K, 9007 kPa	989.99
362.51 K, 9993 kPa	991.16
362.51 K, 10997 kPa	992.36
362.51 K, 11993 kPa	993.56
362.51 K, 12838 kPa	994.53
362.51 K, 14038 kPa	995.94
362.51 K, 15044 kPa	997.1
362.51 K, 16029 kPa	998.18
362.51 K, 17006 kPa	999.27
362.51 K, 18016 kPa	1000.4
362.51 K, 18987 kPa	1001.47
